Tests used:
Thomsonisca amathus = assay: Field sticky-trap attraction test in a tea field, natural-enemy parasitoid wasp; type: in vivo; conditions: number attracted to trap relative to Comparative Example 1 (100% Z isomer) = 100, rubber cap with 0.1 mg in total of Z and E isomers, white sticky trap, June 2007
Procedure: (§1) In accordance with the process described in J. Org. Chem. 1980, 45, 2910-2913, (R,Z)-(+)-3,9-dimethyl-6-isopropenyl-3,9-decadienyl propionate, the sex pheromone of white peach scale, was synthesized. The product thus obtained was separated into the Z isomer and the E isomer by using medium-pressure liquid column chromatography. A gray rubber cap (produced by West in US) impregnated with 0.1 mg in total of the Z isomer and the E isomer at a weight ratio of 100:0, 90:10, 80:20, 70:30, 60:40, 50:50, 40:60, 20:80 or 0:100 was used as an attractant for test.
(§2) In the emerging season of first-generation adult males of white peach scale in June, 2007, the attractant described above was attached to a white sticky trap and placed at intervals of 10 m on ridges in a tea field. The numbers of adult males of white peach scale and Thomsonisca amathus, a parasitoid wasp and natural enemy thereof, which had stuck to the sticky plates, was counted every day, respectively.
(§3) When the number of adult males of white peach scale attracted to the trap in Comparative Example 1 comprising an attractant containing 100% of (R,Z)-(+)-3,9-dimethyl-6-isopropenyl-3,9-decadienyl propionate was assigned as 100, the number attracted to each trap was calculated as a relative value. In the attraction test of Thomsonisca amathus, similar data processing was performed.

[1] = tested on: adult males of white peach scale; assay: Field sticky-trap attraction test in a tea field, adult males of white peach scale; type: in vivo, Pseudaulacaspis pnetagona; conditions: number attracted to trap relative to Comparative Example 1 (100% Z isomer) = 100, rubber cap with 0.1 mg in total of Z and E isomers, June 2007
Procedure: as §1, §2, §3

| Structure (SMILES) | attraction of Thomsonisca amathus (Thomsonisca amathus) [%] | attraction of adult males of white peach scale [1] [%] |
| --- | --- | --- |
| C=C(C)CC[C@H](C/C=C(/C)CCOC(=O)CC)C(=C)C [Comp.Ex. 1, (R,Z)-(+)-3,9-dimethyl-6-isopropenyl-3,9-decadienyl propionate] | 100.0 | 100.0 |
| C=C(C)CC[C@H](C/C=C(\C)CCOC(=O)CC)C(=C)C [Comp.Ex. 4, (R,E)-(+)-3,9-dimethyl-6-isopropenyl-3,9-decadienyl propionate] | 0.0 | 0.0 |

From patent US20110172304A1, “Sex Attractant of White Peach Scale and Attraction Method” (Shin-Etsu Chemical Co., Ltd., priority 2010, published 2011)
